According to BigSolDB 2.1:

Settings: 298.15 K

O=C(O)c1ccc(Cl)c(Cl)c1
Settings	solubility (mole fraction)
in 1,4-dioxane	0.0493
in 2-butoxyethanol	0.0399
in 2-ethoxyethanol	0.0445
in 2-isopropoxyethanol	0.0483
in 2-methyl-1-butanol	0.0183
in 2-methyl-1-pentanol	0.0239
in 2-pentanol	0.0248
in 2-propoxyethanol	0.0468
in 3-methoxy-1-butanol	0.0503
in 4-methyl-2-pentanol	0.0255
in MTBE	0.0358
in THF	0.101
in dibutyl ether	0.00969
in diethyl ether	0.0308
in diisopropyl ether	0.0126
in ethanol	0.0173
in ethyl acetate	0.0164
in isobutanol	0.0139
in isopentanol	0.0216
in isopropanol	0.0177
in methyl acetate	0.0119
in methyl butyrate	0.0143
in n-butanol	0.0203
in n-butyl acetate	0.0206
in n-heptanol	0.0251
in n-hexanol	0.0238
in n-octanol	0.0242
in n-pentanol	0.0218
in n-pentyl acetate	0.0216
in n-propanol	0.0185
in n-propyl acetate	0.0176
in sec-butanol	0.019
in tert-butanol	0.0345
